Holding throughout (format): in vivo, SCID mice
One data set deals with BxPC3 tumors. Put plainly: Protocol 95: TCMC saturation, CA-to-antibody ratio, ^212Pb activity. To be noted: no CA, 24 h; for tumor accumulation: ±SD, n=3. From the text: In this study, nine different clearing agents based on dextran-500 were compared in terms of inhibition of ^212Pb-DOTAM association to tumors. More specifically, the experiment assessed the impact on tumor-associated radioactivity from i) TCMC saturation, ii) clearing agent-to-antibody ratio, and iii) production/purification method. In addition, the tumor uptake was compared after injection of 10 or 30 μCi of ^212Pb-DOTAM, without pretargeting or CA, to assess whether radioactivity saturation of the tumor was achieved already at the lower dose.
PRIT-0165 (100 μg per 100 μL) was administered i.v., followed three days later by dextran-500-based clearing reagents (10-170 μg per 100 μL) with varying TCMC substitution (10-100%). Groups J and K received PBS instead of clearing agent. Two hours later, mice were injected i.v. with 100 μL of the respective ^212Pb-DOTAM solutions (10 or 30 μCi).
Mice were sacrificed and necropsied 24 hours after injection of ^212Pb-DOTAM. Blood, bladder, spleen, kidneys, liver, lung, muscle, tail, and tumors were collected, weighed and measured for radioactivity content, and the % ID/g subsequently calculated.

The test system of the next data set is s.c. BxPC3 tumors. In words: Protocol 146: ^212Pb-DOTAM distribution after PRIT, 5 min to 48 h. On the procedure: Protocol 146 was designed to provide in vivo ^212Pb-DOTAM distribution data after PRIT for estimations of the absorbed radioactive dose to tumor and normal tissues, in SCID mice carrying s.c. BxPC3 tumors. The quenching of ^212Pb-DOTAM was performed using Ca (see example 34).
Pretargeting was performed by injection of CEA-DOTAM BsAb, followed 7 days later by the CA. After 24 hours, the ^212Pb-DOTAM was administered. Groups of mice were sacrificed at multiple time points from 5 minutes to 48 hours after the radioactive injection, and blood and organs harvested for radioactive measurement. […] Absorbed doses were finally calculated through established methods using the resulting time-activity curves. […]
Mice in group E and F were individually housed (i.e. one mouse per cage) in grilled-floor metabolic cages. Urine and feces were collected from each cage 2, 6, and 24 hours after the radioactive injection, and the individual samples subsequently measured for radioactivity. […]
Blood/serum was collected from all mice through retro-orbital bleeding before termination. After euthanasia, the following additional organs and tissues were harvested for radioactivity measurement and calculation of % ID/g: bladder, uterus, small intestine, colon, spleen, pancreas, kidneys, stomach, liver, lung, heart, brain, femoral bone, skin, muscle, abdominal fat, tail, and tumor.

For a further data set, the system named is s.c. WSU-DLCL2 tumors. In words: Protocol 162: CD20-PRIT and 1-step RIT efficacy and biodistribution. To be noted: multiple injections of 20 μCi (PRIT). As for the experimental part:
The aim of this study was to show proof-of-concept of the treatment regimen developed for CEA-PRIT directed against an alternative target: cluster of differentiation 20 (CD20). The therapeutic efficacy was evaluated after 3 cycles of CD20-PRIT in mice bearing subcutaneous WSU-DLCL2 tumors. Comparisons were also made with: 1-step CD20-RIT, using BsAbs that were pre-incubated with ^212Pb-DOTAM before injection; with rituximab, a type I monoclonal antibody directed against CD20 and a reference in treatment of CD20+ diseases; and with GA101, a type II monoclonal antibody also directed against CD20.
Animals were treated according to the experimental schedule illustrated in FIG. 59. Solid WSU-DLCL2 xenografts were established in SCID mice aged 8 weeks on study day 0 by subcutaneous injection of 1.5×10^5 cells into the right flank. […]
Mice in groups H, I, and L were sacrificed and necropsied for biodistribution purposes 24 hours after their first and only injection of ^212Pb-DOTAM or ^212Pb-DOTAM-BsAb; groups J and K were sacrificed and necropsied 24 hours after their second and third ^212Pb-DOTAM injection, respectively. […] Collected samples were weighed and then measured for radioactivity using a 2470 WIZARD^2 automatic gamma counter (PerkinElmer), and the percent injected dose per gram of tissue (% ID/g) subsequently calculated, including corrections for decay and background. […]

As to `NC(=O)CN1CCN(CC(N)=O)CCN(CC(N)=O)CCN(CC(N)=O)CC1.[212Pb+2]` [^212Pb-DOTAM], the tumor-to-blood ratio with BxPC3 tumors (10 μCi ^212Pb-DOTAM) was determined as 2.26±0.25; in the data set with BxPC3 tumors (30 μCi ^212Pb-DOTAM), 3.20±0.20. Besides, the tumor accumulation with BxPC3 tumors (10 μCi ^212Pb-DOTAM) is 72.38±10.83 % ID/g; with BxPC3 tumors (30 μCi ^212Pb-DOTAM) it was 107.74±14.71 % ID/g. Also, the “accumulation of radioactivity in tumor” value in the data set with s.c. BxPC3 tumors (5 minutes after injection, pretargeted by CEA-DOTAM BsAb, CA) was 17 % ID/g; with s.c. BxPC3 tumors (by 6 hours p.i., remaining for at least 48 hours), “over 40%”. The “tolerability (BW development)” value with s.c. WSU-DLCL2 tumors was “well tolerated”.

(Values after patent US20220031871A1, “ANTIBODIES FOR CHELATED RADIONUCLIDES AND CLEARING AGENTS” (Hoffmann-La Roche Inc., priority 2018, published 2022).)
